This passage reports Ki results from US20250304576A1 (Cancer Research Technology Limited, priority 2022, published 2025).

One assay concerns the target T1, Recombinant IKKα (Homo sapiens, UniProt O15111).
T1 construct: purchased Millipore, Dundee, UK
T1 sequence (O15111 1-745): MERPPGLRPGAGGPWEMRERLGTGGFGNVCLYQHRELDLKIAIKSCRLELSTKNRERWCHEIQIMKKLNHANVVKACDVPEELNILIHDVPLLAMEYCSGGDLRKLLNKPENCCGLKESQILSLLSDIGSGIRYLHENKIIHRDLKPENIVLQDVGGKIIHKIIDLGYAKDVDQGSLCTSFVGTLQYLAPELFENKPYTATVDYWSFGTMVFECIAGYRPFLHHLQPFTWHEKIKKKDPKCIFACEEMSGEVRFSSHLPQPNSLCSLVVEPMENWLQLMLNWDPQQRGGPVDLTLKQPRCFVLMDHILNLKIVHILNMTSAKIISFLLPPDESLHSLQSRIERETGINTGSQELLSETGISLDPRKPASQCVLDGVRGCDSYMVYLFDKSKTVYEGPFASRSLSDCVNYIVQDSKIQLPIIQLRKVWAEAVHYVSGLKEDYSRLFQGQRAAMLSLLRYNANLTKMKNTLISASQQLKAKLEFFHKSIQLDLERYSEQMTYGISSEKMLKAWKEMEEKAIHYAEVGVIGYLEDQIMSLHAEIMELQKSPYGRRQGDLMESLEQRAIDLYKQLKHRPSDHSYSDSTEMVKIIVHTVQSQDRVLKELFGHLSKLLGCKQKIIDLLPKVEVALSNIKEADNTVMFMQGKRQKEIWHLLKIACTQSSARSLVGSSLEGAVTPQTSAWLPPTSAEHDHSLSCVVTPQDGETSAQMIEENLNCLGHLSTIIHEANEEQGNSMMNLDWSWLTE
In words: DELFIA IKKα kinase assay (apparent Ki, Cheng-Prusoff). The note with it: DELFIA assay (first line of an example). Type of assay: biochemical. In outline:
(§1)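 Recombinant IKKα or IKKβ (37 nM) with 0.375 μM biotinylated IκB-α (Ser32) peptide and 40 μM ATP in 40 mM Tris-HCl pH 7.5, 20 mM MgCl2, 60 min at 30° C. Phospho-substrate captured on streptavidin and detected by anti-phospho-IκB-α plus europium anti-mouse IgG time-resolved fluorescence; apparent Ki via Cheng-Prusoff.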

For another assay, the target named is T2, Recombinant IKKβ (Homo sapiens, UniProt O14920).
T2 construct: purchased Millipore, Dundee, UK
T2 sequence (O14920 1-756): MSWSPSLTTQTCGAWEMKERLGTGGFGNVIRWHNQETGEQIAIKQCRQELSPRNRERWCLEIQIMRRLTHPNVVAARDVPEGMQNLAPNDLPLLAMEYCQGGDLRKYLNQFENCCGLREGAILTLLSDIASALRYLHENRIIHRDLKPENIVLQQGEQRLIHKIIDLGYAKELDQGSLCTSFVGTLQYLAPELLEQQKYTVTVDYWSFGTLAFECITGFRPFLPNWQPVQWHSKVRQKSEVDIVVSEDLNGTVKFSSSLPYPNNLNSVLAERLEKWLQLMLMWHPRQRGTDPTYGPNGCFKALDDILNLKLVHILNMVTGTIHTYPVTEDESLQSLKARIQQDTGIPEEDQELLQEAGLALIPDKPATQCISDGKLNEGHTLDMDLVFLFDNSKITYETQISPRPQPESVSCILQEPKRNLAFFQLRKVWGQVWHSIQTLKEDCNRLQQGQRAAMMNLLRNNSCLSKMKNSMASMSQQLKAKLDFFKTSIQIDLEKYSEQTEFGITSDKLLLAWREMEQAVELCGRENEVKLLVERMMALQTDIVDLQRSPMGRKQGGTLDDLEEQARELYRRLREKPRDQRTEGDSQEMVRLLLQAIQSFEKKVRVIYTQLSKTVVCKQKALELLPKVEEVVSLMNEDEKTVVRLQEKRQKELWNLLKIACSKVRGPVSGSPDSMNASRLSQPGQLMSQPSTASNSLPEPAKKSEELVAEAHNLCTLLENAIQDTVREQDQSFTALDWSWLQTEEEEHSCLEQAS
The assay can be described thus: DELFIA IKKβ kinase assay (apparent Ki, Cheng-Prusoff). The assay is classed as biochemical. The note with it: DELFIA assay (first line of an example). In outline: as §1

As to `CC(C)(C)C#Cc1cc(-c2ccnc(NC(=O)Nc3ccccc3)c2)cc2c(N)n[nH]c12` [Example 189, 1-(4-(3-Amino-7-(3,3-dimethylbut-1-yn-1-yl)-1H-indazol-5-yl)pyridine-2-yl)-3-phenylurea], the Ki stood at 113 nM on Recombinant IKKα and 19300 nM on Recombinant IKKβ.
With `COC(=O)Nc1cc(-c2cc(C#CC(C)(C)C)c3[nH]nc(N)c3c2)ccn1` [Example 190, Methyl (4-(3-amino-7-(3,3-dimethylbut-1-yn-1-yl)-1H-indazol-5-yl)pyridin-2-yl)carbamate], the Ki on Recombinant IKKα worked out at 12 nM; at Recombinant IKKβ, 1170 nM.
Consider `CCOC(=O)Nc1cc(-c2cc(C#CC(C)(C)C)c3[nH]nc(N)c3c2)ccn1` [Example 191, Ethyl (4-(3-amino-7-(3,3-dimethylbut-1-yn-1-yl)-1H-indazol-5-yl)pyridin-2-yl)carbamate], for which the Ki on Recombinant IKKα amounted to 20 nM; on Recombinant IKKβ, 1590 nM.
Regarding `CC(C)(C)C#Cc1cc(-c2ccnc(NS(C)(=O)=O)c2)cc2c(N)n[nH]c12` [Example 194, N-(4-(3-amino-7-(3,3-dimethylbut-1-yn-1-yl)-1H-indazol-5-yl)pyridin-2-yl)methanesulfonamide], the Ki worked out at 373 nM at Recombinant IKKα and 4900 nM on Recombinant IKKβ.
The matching figures for `CC(=O)Nc1cc(-c2cc(-c3ccncc3)c3[nH]nc(N)c3c2)ccn1` [Example 197, N-(4-(3-Amino-7-(pyridin-4-yl)-1H-indazol-5-yl)pyridin-2-yl)acetamide]: 25 nM and 70 nM.
Regarding `Nc1n[nH]c2c(-c3ccoc3)cc(-c3ccnc4[nH]ccc34)cc12` [Example 199, 7-(Furan-3-yl)-5-(1H-pyrrolo[2,3-b]pyridin-4-yl)-1H-indazol-3-amine], the Ki was found to be 6 nM on Recombinant IKKα and 45 nM at Recombinant IKKβ.
On to `Nc1n[nH]c2c(C#CCO)cc(-c3ccnc4[nH]ccc34)cc12` [Example 205, 3-(3-Amino-5-(1H-pyrrolo[2,3-b]pyridin-4-yl)-1H-indazol-7-yl)prop-2-yn-1-ol], for which the Ki on Recombinant IKKα worked out at 366 nM; on Recombinant IKKβ, 3100 nM.
In the same order, the values of `Nc1n[nH]c2c(C#CC3(O)CCCC3)cc(-c3ccnc4[nH]ccc34)cc12` [Example 207, 1-((3-Amino-5-(1H-pyrrolo[2,3-b]pyridin-4-yl)-1H-indazol-7-yl)ethynyl)cyclopentan-1-ol] are 82 nM and 1470 nM.
Take `Nc1n[nH]c2c(C#CC3(O)CCCCC3)cc(-c3ccnc4[nH]ccc34)cc12` [Example 208, 1-((3-Amino-5-(1H-pyrrolo[2,3-b]pyridin-4-yl)-1H-indazol-7-yl)ethynyl)cyclohexan-1-ol]: the figures for the Ki at Recombinant IKKα and on Recombinant IKKβ were 76 nM and 528 nM, respectively.
For `Nc1n[nH]c2c(C#CC3(O)CCCCCC3)cc(-c3ccnc4[nH]ccc34)cc12` [Example 209, 1-((3-Amino-5-(1H-pyrrolo[2,3-b]pyridin-4-yl)-1H-indazol-7-yl)ethynyl)cycloheptan-1-ol], the Ki on Recombinant IKKα amounted to 153 nM; at Recombinant IKKβ, 2330 nM.
In the case of `Nc1n[nH]c2c(C#CCCN3CCCCC3)cc(-c3ccnc4[nH]ccc34)cc12` [Example 211, 7-(4-(Piperidin-1-yl)but-1-yn-1-yl)-5-(1H-pyrrolo[2,3-b]pyridin-4-yl)-1H-indazol-3-amine], the results for the Ki at Recombinant IKKα and at Recombinant IKKβ were 19 nM and 356 nM, respectively.
In the same order, the values of `Nc1n[nH]c2c(C#CCCCCN3CCCCC3)cc(-c3ccnc4[nH]ccc34)cc12` [Example 213, 7-(6-(Piperidin-1-yl)hex-1-yn-1-yl)-5-(1H-pyrrolo[2,3-b]pyridin-4-yl)-1H-indazol-3-amine] are 40 nM and 2510 nM.
The matching figures for `Nc1n[nH]c2c(C#CCCCC(=O)O)cc(-c3ccnc4[nH]ccc34)cc12` [Example 214, 6-(3-Amino-5-(1H-pyrrolo[2,3-b]pyridin-4-yl)-1H-indazol-7-yl)hex-5-ynoic acid]: 21 nM and 268 nM.
The matching figures for `Nc1n[nH]c2c(C#CCCCCC(=O)O)cc(-c3ccnc4[nH]ccc34)cc12` [Example 215, 7-(3-Amino-5-(1H-pyrrolo[2,3-b]pyridin-4-yl)-1H-indazol-7-yl)hept-6-ynoic acid]: 38 nM and 256 nM.
As for `Nc1n[nH]c2c(C#CCCOc3ccccc3)cc(-c3ccnc4[nH]ccc34)cc12` [Example 216, 7-(4-Phenoxybut-1-yn-1-yl)-5-(1H-pyrrolo[2,3-b]pyridin-4-yl)-1H-indazol-3-amine], the Ki was 16 nM at Recombinant IKKα and 81 nM at Recombinant IKKβ.
As for `Nc1n[nH]c2c(C#CCCCCOc3ccccc3)cc(-c3ccnc4[nH]ccc34)cc12` [Example 217, 7-(6-Phenoxyhex-1-yn-1-yl)-5-(1H-pyrrolo[2,3-b]pyridin-4-yl)-1H-indazol-3-amine], the Ki is 243 nM on Recombinant IKKα and 1260 nM at Recombinant IKKβ.
The matching figures for `Nc1n[nH]c2ccc(-c3ccnc4[nH]c(Cc5ccccc5)cc34)cc12` [Example 223, 5-(2-Benzyl-1H-pyrrolo[2,3-b]pyridin-4-yl)-1H-indazol-3-amine]: 1 nM and 111 nM.
On to `CC(C)(O)c1cc2c(-c3ccc4[nH]nc(N)c4c3)ccnc2[nH]1` [Example 225, 2-(4-(3-Amino-1H-indazol-5-yl)-1H-pyrrolo[2,3-b]pyridin-2-yl)propan-2-ol], for which the Ki at Recombinant IKKα turned out to be 26 nM; on Recombinant IKKβ it was 419 nM.
In the same order, the values of `CCC(O)(CC)c1cc2c(-c3ccc4[nH]nc(N)c4c3)ccnc2[nH]1` [Example 226, 3-(4-(3-Amino-1H-indazol-5-yl)-1H-pyrrolo[2,3-d]pyridin-2-yl)pentan-3-ol] are 95 nM and 922 nM.
For the molecule `COC(=O)c1cc2c(-c3ccc4[nH]nc(N)c4c3)ccnc2[nH]1` [Example 231, Methyl 4-(3-amino-1H-indazol-5-yl)-1H-pyrrolo[2,3-b]pyridine-2-carboxylate], the Ki was 9 nM on Recombinant IKKα and 419 nM on Recombinant IKKβ.
As to `CCOC(=O)c1cc2c(-c3ccc4[nH]nc(N)c4c3)ccnc2[nH]1` [Example 232, Ethyl 4-(3-amino-1H-indazol-5-yl)-1H-pyrrolo[2,3-b]pyridine-2-carboxylate], the Ki was determined as 10 nM on Recombinant IKKα and 1260 nM on Recombinant IKKβ.
In the same order, the values of `Nc1n[nH]c2ccc(-c3ccnc4[nH]c(C(=O)NC5CCCC5)cc34)cc12` [Example 235, 4-(3-Amino-1H-indazol-5-yl)-N-cyclopentyl-1H-pyrrolo[2,3-b]pyridine-2-carboxamide] are 6 nM and 70 nM.
In the same order, the values of `CC(C)CCNC(=O)c1cc2c(-c3ccc4[nH]nc(N)c4c3)ccnc2[nH]1` [Example 237, 4-(3-amino-1H-indazol-5-yl)-N-isopentyl-1H-pyrrolo[2,3-b]pyridine-2-carboxamide] are 3 nM and 130 nM.
As for `Nc1n[nH]c2ccc(-c3ccnc4[nH]c(C(=O)NCCc5ccccc5)cc34)cc12` [Example 238, 4-(3-Amino-1H-indazol-5-yl)-N-phenethyl-1H-pyrrolo[2,3-b]pyridine-2-carboxamide], the Ki is 23 nM on Recombinant IKKα and 90 nM at Recombinant IKKβ.
Consider `Nc1n[nH]c2ccc(-c3ccnc4[nH]c(C(=O)NCCCc5ccccc5)cc34)cc12` [Example 239, 4-(3-Amino-1H-indazol-5-yl)-N-(3-phenylpropyl)-1H-pyrrolo[2,3-b]pyridine-2-carboxamide], for which the Ki at Recombinant IKKα came to 5 nM; at Recombinant IKKβ, 60 nM.
